Measurements taken from patent US8318781B2, “G-protein-conjugated receptor agonist” (Japan Science and Technology Agency, priority 2007, dated 2012).
Read-outs that look alike come from different tables or passages of the source.

Assays:
Type in all cases: cell-based
[1] = biological target: T1, human GPR120 (hGPR120) (Homo sapiens, UniProt Q5NUL3); test: Determination of intracellular Ca2+ concentration (FLIPR), cell line TXGPR120; settings: for selectivity between GPR40 and GPR120 (in words), from Tables 3 and 4: GPR40 versus GPR120, Ca2+ and ERK results; for agonistic activity for hGPR120 (in words): cells in which GPR120 has been transgenically expressed; for [Ca^2+]/GPR120 10 μM (ratio vs. LA): relative fluorescence intensity vs LA at 10 μM, TXGPR120 cells
T1 construct: expressed in transfected cells; doxycycline-inducible expression vector
T1 sequence (Q5NUL3 1-361): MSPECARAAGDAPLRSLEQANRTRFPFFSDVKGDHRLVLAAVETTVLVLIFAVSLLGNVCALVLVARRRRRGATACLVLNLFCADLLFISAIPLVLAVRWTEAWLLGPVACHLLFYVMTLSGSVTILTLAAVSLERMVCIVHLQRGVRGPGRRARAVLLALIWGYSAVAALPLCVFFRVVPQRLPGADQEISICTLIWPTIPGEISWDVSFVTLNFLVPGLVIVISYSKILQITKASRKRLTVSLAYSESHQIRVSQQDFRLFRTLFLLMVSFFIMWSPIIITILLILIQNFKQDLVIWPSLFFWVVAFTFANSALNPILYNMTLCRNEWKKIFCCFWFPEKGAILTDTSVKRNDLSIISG
Protocol: (§1) (1) In this test, The cell lines TXGPR40, TXGPR120 and GPR120/Flp-in were plated onto a collagen-coated black 96-well plate in 2×10^5 cells/well. The 96-well plates containing the cells were centrifuged and treated with Doxycycline (final concentration 10 μg/mL), incubated in a CO2 incubator for 21 hours, then used for assay.
(§2) (2) The ligand used in this test includes NCP04, NCP14, NCG20, NCG21, NCG22, NCG23, NCP02, NCP03, NCP05, NCP06, NCG14, NCG17, NCG19, NCG28, NCG29, NCG30, NCG31, NCG34, NCG35, NCG37, NCG38, NCG44, NCG45, NCG46, and NCG54. Each ligand was dissolved in DMSO and adjusted to the concentration of 10 mM, then diluted with Hanks' Balanced Salt Solution (pH 7.4) containing 20 mM HEPES (referred to as FLIPR buffer hereinafter) to the final concentration of 1 to 100 μM. 1% DMSO was used as the negative control, and LA was used as the positive control.
(§3) The ligands and controls were placed in different 96-well plates from the plates for the cells.
(§4) (3) The 96-well plate containing the cells was removed from the CO2 incubator. A fluorescent dye prepared in a twofold higher concentration (Ca Assay Kit Component A diluted with FLIPR Buffer) was added in 50 μL/well, then allowed to stand in the dark at room temperature for one hour.
(§5) (4) After one hour, the 96-well plate containing the cells and the 96-well plate in which ligands and controls were prepared were set on FLIPR (Fluorometric Imaging Plate Reader) for determination.
(§6) (5) Fluorometry using FLIPR was carried out at a laser output of 1.0 W for five minutes. […] after the start of the determination, the ligand (25 μL) was added dropwise to the cell plate at a rate of 50 μL/sec. The intensity of fluorescence was automatically digitized by the application program installed in the FLIPR from the image taken by the CCD camera (with exposure time of 0.40 sec). The interval of data sampling was one second for the initial one minute after the start of operation, and six seconds for the subsequent four minutes.
(§7) (6) The maximum fluorescence intensity was obtained from the data showing the change in the fluorescence intensity over time observed in each well. The maximum fluorescence intensity was plotted against ligand concentration, and pEC50 was calculated. The ratio of the fluorescence intensity for each ligand to LA at 10 μM was calculated as the relative intensity of each ligand.

[2] = biological target: T2, human GPR40 (hGPR40) (Homo sapiens, UniProt O14842); test: Determination of intracellular Ca2+ concentration (FLIPR), cell line TXGPR40; settings: for agonistic activity for GPR40 (in words): cells in which GPR40 has been transgenically expressed; for [Ca^2+]/GPR40 10 μM (ratio vs. LA): relative fluorescence intensity vs LA at 10 μM
T2 construct: expressed in transfected cells; doxycycline-inducible expression vector
T2 sequence (O14842 whole entry): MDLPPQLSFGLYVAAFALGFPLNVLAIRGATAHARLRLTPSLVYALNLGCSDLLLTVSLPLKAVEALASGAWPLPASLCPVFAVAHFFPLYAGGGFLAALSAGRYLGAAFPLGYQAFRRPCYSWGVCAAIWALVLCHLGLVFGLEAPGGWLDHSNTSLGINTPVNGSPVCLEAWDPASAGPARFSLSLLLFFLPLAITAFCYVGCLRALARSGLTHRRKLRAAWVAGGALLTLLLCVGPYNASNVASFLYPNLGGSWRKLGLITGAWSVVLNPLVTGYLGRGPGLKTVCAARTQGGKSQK
Protocol: as §1, §2, §3, §4, §5, §6, §7

[3] = biological target: T2, human GPR40 (hGPR40); test: ERK assay, screening for GPR40 ligands in cell line TXGPR40; settings: ligand 10 μM, TXGPR40 cells, class relative to LA
Protocol: This Test 1 was carried out by using the following materials and methods.
(1) In this test, the cell lines TXGPR40 and TXGPR120 were plated in 35-mm dishes in 5×10^5 cells/per dish.
Each ligand was dissolved in DMSO, diluted tenfold with the medium to make the total amount of 100 μl. DMSO was used as the negative control, and PMA (phorbol-12-myristate-13-acetate) was used as the positive control.
(3) The medium was removed from the dish of the cell to reduce the total amount of liquid to 0.9 ml.
(4) The ligand solution was added dropwise to the cell solution, and dispersed by gently shaking the dish, and allowed to react at room temperature.
(5) After 5 minutes of reaction, the medium was discarded, and the remaining medium on the dish was removed on ice using an aspirator.
(6) 150 μl of Lysis buffer (50 mM HEPES (pH 7.0), 150 mM NaCl, 10% glycerol, 1% NonidetP-40, 2 mM MgCl2, 1 mM EDTA, 100 mM NaF, 10 mM sodium phosphate, 1 mM Na3VO4, 20 mM β-glycerophosphate, and Proteinase inhibitor) were added, then the cells were collected using a cell scraper.
(1) The crude enzyme solution mixed with SDS Sample Buffer was subjected to ultrasonication with a sonifier, then incubated at 90° C. for five minutes.
(2) The mixture was vortexed and centrifuged at 15,000 rpm for five minutes at 4° C.
(3) The supernatant of the centrifuged sample was applied to two 7.5% acrylamide gel slabs placed in an electrophoresis tank filled with 1×SDS-PAGE Running Buffer (25 mM Tris, 0.2 M Glycin, and 1% SDS). Electrophoresis was carried out under a constant current of 40 mA for about 80 to 90 minutes.
(1) A PVDF membrane cut in the same size as the gel slab was immersed in methanol for about 15 seconds and then shaken in Transfer Buffer C solution (25 mM Tris, 0.02% SDS, 2% methanol and 40 mM 6-aminohexanoic acid) at room temperature to swell for 15 minutes. Filter paper for blotting was cut into a 10-cm square.
(2) On the blotting apparatus were placed sequentially two pieces of filter paper immersed in A solution (0.3 M Tris, 0.02% SDS and 2% methanol), two pieces of filter paper immersed in B solution (25 mM Tris, 0.02% SDS and 2% methanol), and the membrane thereon. The gel slab after electrophoresis, and finally two pieces of filter paper immersed in C solution was placed thereon, and the apparatus was closed.
(3) The protein was transferred to the membrane at 15 V for 30 minutes.
(1) The following procedure was all carried out at room temperature. After the protein transfer, the membrane was placed into a vial containing 1×TTBS (0.2 M Tris, 1.5 M NaCl, 0.2% Tween 20) and washed for 15 minutes.
(2) TTBS was discarded, and about 10 ml of Block Ace was added and blocked on a shaker for one hour.
(1) The primary antibodies (p44/42 MAP Kinase Antibody and Phospho-p44/42 MAP Kinase Antibody) were each diluted 1000-fold with TTBS.
(2) After blocking, the Block Ace solution was removed, the solution of the primary antibody was added and allowed to react on the shaker for two hours.
(1) The secondary antibody (Anti-rabbit Ig, Horseradish Peroxidase linked F(ab′)2 fragments) was diluted 5000-fold with TTBS.
(2) The primary antibody solution was removed and the membrane was washed three times on the shaker in TTBS for five to ten minutes each.
(3) TTBS was removed and the solution of secondary antibody was added and left for 1 hour on the shaker.
(1) 2 ml each of Detection Reagent 1 and Detection Reagent 2 from ECL kit were mixed together on ice.
(2) The solution of secondary antibody was removed from the membrane reacted with the secondary antibody and then washed three times on the shaker in TTBS for five minutes each.
(3) The liquid was thoroughly removed from the membrane, which was then placed in a plastic bag, and 2 ml of the Detection Reagent mixture was added per each membrane.
(4) The membrane was kept in contact with a film in the cassette for one to five minutes, and the film was developed using an automatic developing machine.

[4] = biological target: T1, human GPR120 (hGPR120); test: Determination of intracellular Ca2+ concentration (FLIPR), cell line GPR120/Flp-in; settings: for [Ca^2+]/GPR120/Flp-In 10 μM (ratio vs. LA): relative fluorescence intensity vs LA at 10 μM
Protocol: as §1, §2, §3, §4, §5, §6, §7

[5] = GPR120/Flp-in cells, maximum fluorescence intensity vs ligand concentration, read-out: [Ca^2+]/GPR120/Flp-In pEC50 (converted)
[6] = TXGPR40 cells, maximum fluorescence intensity vs ligand concentration, read-out: [Ca^2+]/GPR40 pEC50 (converted)

selectivity between GPR40 and GPR120 (in words), from Tables 3 and 4 [1] | agonistic activity for hGPR120 (in words) [1] | [Ca^2+]/GPR120 10 μM (ratio vs. LA) [1] | agonistic activity for GPR40 (in words) [2] | [Ca^2+]/GPR40 10 μM (ratio vs. LA) ([2]; TXGPR40 cells) | ERK/GPR40 10 μM [3] | EC50 [4, 5] [µM] | [Ca^2+]/GPR120/Flp-In 10 μM (ratio vs. LA) ([4]; GPR120/Flp-in cells) | EC50 [2, 6] [µM] | EC50 [2] [µM] | EC50 [4] [µM] | Compound
selective agonists for GPR40 | exhibit a similar effect | 0.00 | showed a specific reactivity | 1.17 | ++ (++ denotes 50 to 100% of LA) | 14.8 | 0.43 | – | – | – | O=C(O)CCc1ccc(NCc2cccc3ncccc23)cc1 [NCG14]
selective agonists for GPR40 | exhibit a similar effect | 0.00 | showed a specific reactivity | 1.34 | ++ (++ denotes 50 to 100% of LA) | 5.89 | 0.59 | 3.39 | – | – | c1ccc(Oc2cccc(CNc3ccc(CCc4nnn[nH]4)cc3)c2)cc1 [NCG17]
selective agonists for GPR40 | exhibit a similar effect | 0.04 | showed a specific reactivity | 1.29 | ++ (++ denotes 50 to 100% of LA) | 17 | 0.33 | 2.88 | – | – | CS(=O)(=O)NC(=O)CCc1ccc(NCc2cccc(Oc3ccccc3)c2)cc1 [NCG19]
– | – | – | – | – | – | – | – | – | 27.5 | 12.6 | CCCCN(CCOc1ccc(CCCC(=O)O)cc1)c1ccccn1 [NCG20, 4-{4-[2-(2-butylpyridinylamino)ethoxy]phenyl}butanoic acid]
